Assay results reported in patent US7666617B2, “Devices and methods for profiling enzyme substrates” (University of Maryland, Baltimore County, priority 2005, dated 2010).

Legend:
endogenous kinase NM23 = test: Endogenous NM23 kinase signal (internal control) in the CK2α reverse in-gel kinase assay; conditions: 75 μM apigenin in assay buffer; LNCaP lysate
Procedure: 300 μg of LNCaP lysate was treated with bacteriophage λ phosphatase at 30° C. for 1 hour. The lysate was then precipitated with TCA, resolublized in IEF rehydration buffer and applied to CKα reverse in-gel kinase assay with 25 μg of recombinant human CK2α cast in the gel. 75 μM apigenin was added in the reverse in-gel kinase assay buffer and a parallel assay was performed with same volume of vehicle (DMSO) added to the reaction buffer.

Protein Kinase A (PKA) = test: PKA RIKA of TBB-treated LNCaP cell extract; assay type: cell-based; conditions: TBB-treated vs vehicle-treated LNCaP lysate; RIKA gel with 50 μg/ml recombinant PKA
Procedure: FIG. 8A-8B, an equivalent mass of protein used for the RIKA shown in FIGS. 7A-7E was applied to a RIKA gel containing 50 μg/ml recombinant PKA. Arrows designates the activity of the endogenous kinase NM23 H1 which serves as an internal control. FIG. 8A is an autoradiogram of the PKA RIKA using the vehicle-treated lysates.

O=c1cc(-c2ccc(O)cc2)oc2cc(O)cc(O)c12 [Apigenin, apigenin]
effect on endogenous kinase NM23 signal (endogenous kinase NM23): not affected

Brc1c(Br)c(Br)c2[nH]nnc2c1Br [TBB, 4,5,6,7 tetrabromobenzotriazole]
signal intensity of proteins detected in PKA RIKA, TBB-treated extract (Protein Kinase A (PKA)): No increase
